The numbers were not newly measured in paper PMC8513935, which cites them from elsewhere.

The structures appear in SMILES notation.

Data set [1] can be described thus: log P octanol/water from commercial databases, averaged (the ESI). As to conditions: Octanol (wet), 25 C.
Data set [2] in a line: experimental, compiled by the authors from the literature (the ESI cites the sources). As to conditions: 25 C.
The nature of data set [3]: derived by the authors as gas->solvent minus gas->water (a hypothetical dry solvent; the ESI), not a two-phase measurement. As to conditions: 25 C.

As to `Cc1cc(C)c(C)cc1C`, the log K of transfer, water to solvent is 4.1 log10 K in data set [1]; 4.24 log10 K in data set [3] (2-Methylpropan-1-ol); 4.32 log10 K in data set [3] (2-Methylpropan-2-ol); 4.33 log10 K in data set [3] (3-Methylbutan-1-ol); 4.39 log10 K in data set [3] (Butan-1-ol); 4.32 log10 K in data set [3] (Butan-2-ol). Further, the log K of transfer, water to solvent in data set [3] (Decan-1-ol) was 4.48 log10 K; in data set [3] (Di-n-butyl ether), 4.74 log10 K; in data set [3] (Diethyl Ether) it was 4.85 log10 K; in data set [3] (Ethanol) it was 4.19 log10 K; in data set [3] (Heptan-1-ol) it was 4.44 log10 K; in data set [3] (Hexadecane) it was 4.5 log10 K. Also, the log K of transfer, water to solvent in data set [3] (Hexan-1-ol) was 4.42 log10 K; in data set [3] (Hexane), 4.78 log10 K; in data set [3] (Methanol), 3.99 log10 K; in data set [3] (Pentan-1-ol), 4.39 log10 K; in data set [3] (Propan-1-ol), 4.26 log10 K; in data set [3] (Propan-2-ol) it was 4.22 log10 K. In addition, the log K of transfer, gas to solvent is 4.77 log10 K in data set [2] (2-Methylpropan-1-ol); 4.85 log10 K in data set [2] (2-Methylpropan-2-ol); 4.86 log10 K in data set [2] (3-Methylbutan-1-ol); 4.92 log10 K in data set [2] (Butan-1-ol); 4.85 log10 K in data set [2] (Butan-2-ol); 5.01 log10 K in data set [2] (Decan-1-ol). Besides, the log K of transfer, gas to solvent was 5.27 log10 K in data set [2] (Di-n-butyl ether); 5.38 log10 K in data set [2] (Diethyl Ether); 4.72 log10 K in data set [2] (Ethanol); 4.97 log10 K in data set [2] (Heptan-1-ol); 5.03 log10 K in data set [2] (Hexadecane); 4.95 log10 K in data set [2] (Hexan-1-ol). The log K of transfer, gas to solvent in data set [2] (Hexane) is 5.31 log10 K; in data set [2] (Methanol) it was 4.52 log10 K; in data set [2] (Pentan-1-ol) it was 4.92 log10 K; in data set [2] (Propan-1-ol), 4.79 log10 K; in data set [2] (Propan-2-ol), 4.75 log10 K; in data set [2] (Water), 0.53 log10 K.
Turning to `C1CCOCC1`, the log K of transfer, water to solvent in data set [1] was 0.795 log10 K; in data set [3] (Chloroform), 1.97 log10 K; in data set [3] (Cyclohexane), 0.92 log10 K; in data set [3] (Hexadecane), 0.707 log10 K; in data set [3] (Octan-1-ol(dry)) it was 0.91 log10 K. The log K of transfer, gas to solvent in data set [2] (Chloroform) was 4.28 log10 K; in data set [2] (Cyclohexane), 3.23 log10 K; in data set [2] (Hexadecane), 3.02 log10 K; in data set [2] (Octan-1-ol), 3.22 log10 K; in data set [2] (Water) it was 2.31 log10 K.
As for `Cc1cccnc1`, the log K of transfer, water to solvent in data set [1] is 1.2 log10 K; in data set [3] (2-Methylpropan-2-ol), 0.77 log10 K; in data set [3] (Butan-1-ol), 1.2 log10 K; in data set [3] (Chloroform) it was 1.89 log10 K; in data set [3] (Cyclohexane), 0.27 log10 K; in data set [3] (Hexadecane), 0.131 log10 K. Also, in data set [3] (Propan-1-ol), the log K of transfer, water to solvent is 1.15 log10 K. In addition, the log K of transfer, gas to solvent was 4.27 log10 K in data set [2] (2-Methylpropan-2-ol); 4.7 log10 K in data set [2] (Butan-1-ol); 5.39 log10 K in data set [2] (Chloroform); 3.77 log10 K in data set [2] (Cyclohexane); 3.63 log10 K in data set [2] (Hexadecane); 4.65 log10 K in data set [2] (Propan-1-ol). Besides, the log K of transfer, gas to solvent in data set [2] (Water) is 3.5 log10 K.
